The values that follow are results of earlier work, collected in patent US20230120480A1, “METHODS FOR REMOVING CONTAMINANTS FROM PLANT-DERIVED PHARMACEUTICALS” (priority 2021, published 2023).

System in the first data set: not given
Consider `CCCc1cc(O)c(C/C=C(\C)CCC=C(C)C)c(O)c1` [Cannabigerovarin], for which the “Water Soluble?” value was “No”.

Take `CCCc1cc(O)c(C/C=C(\C)CCC=C(C)C)c(O)c1C(=O)O` [Cannabigerovarinic acid]: the “Water Soluble?” value is “Yes”.

As for `CCCc1cc(O)c2c(c1)OC1(C)CCC(C(C)(C)O)C2C1` (stereo not shown) [Cannabiglendol], the “Water Soluble?” value is “No”.

As for `C=C(C)c1ccc(C)cc1-c1c(O)cc(CCCCC)cc1O` [Cannabinodiol], the “Water Soluble?” value was “No”.

Turning to `C=C(C)c1ccc(C)cc1-c1c(O)cc(CCC)cc1O` [Cannabinodivarin], the “Water Soluble?” value is recorded as “No”.

As to `CCCCCc1cc(OC)c2c(c1)OC(C)(C)c1ccc(C)cc1-2` [Cannabinol methylether], the “Water Soluble?” value is “No”.

Regarding `CCc1cc(O)c2c(c1)OC(C)(C)c1ccc(C)cc1-2` [Cannabinol-C2], the “Water Soluble?” value is on record as “No”.

For `CCCCc1cc(O)c2c(c1)OC(C)(C)c1ccc(C)cc1-2` [Cannabinol-C4], the “Water Soluble?” value is on record as “No”.

For `CCCCCc1cc2c(c(O)c1C(=O)O)-c1cc(C)ccc1C(C)(C)O2` [Cannabinolic acid], the “Water Soluble?” value was “Yes”.

Consider `Cc1cc(O)c2c(c1)OC(C)(C)c1ccc(C)cc1-2` [Cannabiorcool], for which the “Water Soluble?” value was “No”.

As for `CCCCCc1cc(O)c2c(c1)OC(C)(C)[C@@H]1CC[C@](C)(O)[C@@H](O)[C@@H]21` [Cannabiripsol], the “Water Soluble?” value is “No”.

Consider `CCCCCc1cc(O)c2c(c1)OC(C)(C)C1=C2C(O)C(C)(O)CC1` (stereo not shown) [Cannabitriol], for which the “Water Soluble?” value was “No”.

As to `CCCc1cc(O)c2c(c1)OC(C)(C)C1=C2C(O)C(C)(O)CC1` (stereo not shown) [Cannabitriolvarin], the “Water Soluble?” value is recorded as “No”.

As for `CCCc1cc(O)c2c(c1)OC(C)(C)c1ccc(C)cc1-2` [Cannabivarin], the “Water Soluble?” value is listed as “No”.

As to `CCCCCc1cc(O)c2c(c1)OC(C)(C)C1CC=C(C)CC21` (stereo not shown) [Delta-8-tetrahydrocannabinol], the “Water Soluble?” value is “No”.

`CCCCCc1cc2c(c(O)c1C(=O)O)[C@@H]1CC(C)=CC[C@H]1C(C)(C)O2` [Delta-8-tetrahydrocannabinolic acid]: the “Water Soluble?” value is on record as “Yes”.

On to `CCCCCc1cc(O)c2c(c1)OC(C)(C)[C@@H]1CCC(C)=C[C@@H]21` [Delta-9-tetrahydrocannabinol, reference compound], for which the “Water Soluble?” value was “No”.

Regarding `CCCCc1cc(O)c2c(c1)OC(C)(C)C1CCC(C)=CC21` (stereo not shown) [Delta-9-tetrahydrocannabinol-C4], the “Water Soluble?” value is on record as “No”.

As to `CCCCCc1cc2c(c(O)c1C(=O)O)[C@@H]1C=C(C)CC[C@H]1C(C)(C)O2` [Delta-9-tetrahydrocannabinolic acid A], the “Water Soluble?” value is on record as “Yes”.

Turning to `CCCCCc1cc(O)c2c(c1C(=O)O)OC(C)(C)[C@@H]1CCC(C)=C[C@@H]21` [Delta-9-tetrahydrocannabinolic acid B], the “Water Soluble?” value is “Yes”.

For the compound `CCCCc1cc2c(c(O)c1C(=O)O)[C@@H]1C=C(C)CC[C@H]1C(C)(C)O2` [Delta-9-tetrahydrocannabinolic acid-C4], the “Water Soluble?” value is “Yes”.

For `CC1=CC2c3c(O)cc(C)cc3OC(C)(C)C2CC1` (stereo not shown) [Delta-9-tetrahydrocannabiorcol], the “Water Soluble?” value is “No”.

Consider `CC1=CC2c3c(cc(C)c(C(=O)O)c3O)OC(C)(C)C2CC1` (stereo not shown) [Delta-9-tetrahydrocannabiorcolic acid], for which the “Water Soluble?” value was “Yes”.

On to `CCCc1cc2c(c(O)c1C(=O)O)[C@@H]1C=C(C)CC[C@H]1C(C)(C)O2` [Delta-9-tetrahydrocannabivarinic acid], for which the “Water Soluble?” value is listed as “Yes”.

Turning to Cannabifuran, the “Water Soluble?” value is listed as “No”.

For Cannbicitran, the “Water Soluble?” value is given as “No”.

Take Dehydrocannabifuran: the “Water Soluble?” value was “No”.

The test system of the next data set is humans.
`CCCCOCCOCCOCc1cc2c(cc1CCC)OCO2` [Piperonyl butoxide]: the toxicity to humans result is “non-toxic”.
